Assay results published in PubChem BioAssay AID248 (DTP/NCI, 2004).
Where “and” joins values, the source holds several entries; their conditions need not be identical. Equal entries are not always repeated. Toxic doses and inconclusive results are not listed. No stated cut-off is given here; in the data, active means T/C of 150% or more; inactive means T/C below 125%.

System: L1210 leukemia ip in BDF1 mice, survival T/C
Test: NCI In Vivo Anticancer Drug Screen. Data for tumor model L1210 Leukemia (intraperitoneal) in B6D2F1 (BDF1) mice
Settings: endpoint: mean survival time, higher = longer survival
In short: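 Value reflects the ratio of survival in compound-treated mice to survival in vehicle-treated controls, with both groups carrying the same transplanted tumor.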

[1] = dose: 100.0 mg/kg/injection, schedule: Q01DX001 (ip), vehicle: Klucel (hydroxypropylcellulose) (HPC)
[2] = dose: 100.0 mg/kg/injection, schedule: Q01DX009 (ip), vehicle: Klucel (hydroxypropylcellulose) (HPC)
[3] = dose: 100.0 mg/kg/injection, schedule: Q04DX003 (ip), vehicle: Klucel (hydroxypropylcellulose) (HPC)
[4] = dose: 100.0 mg/kg/injection, schedule: Q01DX009 (ip), vehicle: saline with Tween-80
[5] = dose: 200.0 mg/kg/injection, schedule: Q01DX009 (ip), vehicle: saline with Tween-80
[6] = dose: 200.0 mg/kg/injection, schedule: Q04DX003 (ip), vehicle: Klucel (hydroxypropylcellulose) (HPC)
[7] = dose: 400.0 mg/kg/injection, schedule: Q01DX009 (ip), vehicle: saline with Tween-80
[8] = dose: 400.0 mg/kg/injection, schedule: Q04DX003 (ip), vehicle: Klucel (hydroxypropylcellulose) (HPC)
[9] = dose: 12.5 mg/kg/injection, schedule: Q01DX009 (ip), vehicle: saline
[10] = dose: 50.0 mg/kg/injection, schedule: Q01DX009 (ip), vehicle: saline
[11] = dose: 100.0 mg/kg/injection, schedule: Q01DX009 (ip), vehicle: saline
[12] = dose: 200.0 mg/kg/injection, schedule: Q01DX001 (ip), vehicle: Klucel (hydroxypropylcellulose) (HPC)
[13] = dose: 100.0 mg/kg/injection, schedule: Q01DX001 (ip), vehicle: saline
[14] = dose: 200.0 mg/kg/injection, schedule: Q01DX001 (ip), vehicle: saline
[15] = dose: 400.0 mg/kg/injection, schedule: Q01DX001 (ip), vehicle: saline
[16] = dose: 100.0 mg/kg/injection, schedule: Q04DX003 (ip), vehicle: saline with Tween-80
[17] = dose: 200.0 mg/kg/injection, schedule: Q04DX003 (ip), vehicle: saline with Tween-80
[18] = dose: 400.0 mg/kg/injection, schedule: Q04DX003 (ip), vehicle: saline with Tween-80
[19] = dose: 200.0 mg/kg/injection, schedule: Q01DX009 (ip), vehicle: Klucel (hydroxypropylcellulose) (HPC)
[20] = dose: 400.0 mg/kg/injection, schedule: Q01DX009 (ip), vehicle: Klucel (hydroxypropylcellulose) (HPC)
[21] = dose: 100.0 mg/kg/injection, schedule: Q01DX001 (ip), vehicle: carboxymethylcellulose (CMC)
[22] = dose: 200.0 mg/kg/injection, schedule: Q01DX001 (ip), vehicle: carboxymethylcellulose (CMC)
[23] = dose: 400.0 mg/kg/injection, schedule: Q01DX001 (ip), vehicle: carboxymethylcellulose (CMC)
[24] = dose: 25.0 mg/kg/injection, schedule: Q04DX002 (ip), vehicle: saline with Tween-80
[25] = dose: 50.0 mg/kg/injection, schedule: Q04DX002 (ip), vehicle: saline with Tween-80
[26] = dose: 25.0 mg/kg/injection, schedule: Q04DX003 (ip), vehicle: saline with Tween-80
[27] = dose: 50.0 mg/kg/injection, schedule: Q04DX003 (ip), vehicle: saline with Tween-80
[28] = dose: 50.0 mg/kg/injection, schedule: Q01DX009 (ip), vehicle: saline with Tween-80

Measured: T/C

CC1=NCCc2cc3[nH]c4ccccc4c3cc21
inactive: dose: 25.0 mg/kg/injection, schedule: Q01DX009 (ip), vehicle: Klucel (hydroxypropylcellulose) (HPC) 102 % of control | dose: 25.0 mg/kg/injection, schedule: Q04DX003 (ip), vehicle: Klucel (hydroxypropylcellulose) (HPC) 99 % of control | dose: 50.0 mg/kg/injection, schedule: Q01DX009 (ip), vehicle: Klucel (hydroxypropylcellulose) (HPC) 96 % of control | dose: 50.0 mg/kg/injection, schedule: Q04DX003 (ip), vehicle: Klucel (hydroxypropylcellulose) (HPC) 104 % of control | [1] 94 % of control | [2] 94 % of control | [3] 100 % of control

CCc1ccc(OS(=O)(=O)c2ccccc2[N+](=O)[O-])cc1
inactive: [4] 96 % of control | [3] 100 % of control | [5] 114 % of control | [6] 100 % of control | [7] 103 % of control | [8] 95 % of control

O=C(O)C1C(C(=O)O)C2(Cl)C(Cl)=C(Cl)C1(Cl)C2(Cl)Cl.[Co] (stereo unspecified)
inactive: [9] 116 % of control | dose: 25.0 mg/kg/injection, schedule: Q01DX009 (ip), vehicle: saline sonified 112 % of control | dose: 25.0 mg/kg/injection, schedule: Q01DX009 (ip), vehicle: saline 110 % of control | dose: 33.0 mg/kg/injection, schedule: Q01DX009 (ip), vehicle: saline sonified 108 % of control | dose: 50.0 mg/kg/injection, schedule: Q01DX001 (ip), vehicle: Klucel (hydroxypropylcellulose) (HPC) 98 % of control | [10] 115 % of control | dose: 75.0 mg/kg/injection, schedule: Q01DX009 (ip), vehicle: saline sonified 112 % of control | [1] 110 % of control | [11] 124 % of control | [12] 106 % of control

C[N+]1(C)C2CCC1[C@H](C(=O)[O-])[C@@H](O)C2 (stereo partly specified)
inactive: [13] 103 % of control | [14] 93 % of control | [15] 98 % of control

O=C(NC(Cc1ccccc1)C(=O)O)c1ccccc1 (stereo unspecified)
inactive: [4] 91 % of control | [16] 94 % of control and 92 % of control | [5] 95 % of control | [17] 96 % of control and 95 % of control | [7] 90 % of control | [18] 97 % of control and 90 % of control

CC(=O)CC(=O)NCC(CCN(C)C)(c1cccc2ccccc12)C(C)C (stereo unspecified)
inactive: dose: 12.5 mg/kg/injection, schedule: Q04DX003 (ip), vehicle: saline 105 % of control | dose: 25.0 mg/kg/injection, schedule: Q04DX003 (ip), vehicle: saline 97 % of control | dose: 50.0 mg/kg/injection, schedule: Q04DX003 (ip), vehicle: saline 99 % of control

O=[N+]([O-])c1ccc(C#CS(=O)(=O)c2ccccc2)cc1
inactive: [10] 104 % of control | [11] 96 % of control | dose: 200.0 mg/kg/injection, schedule: Q01DX009 (ip), vehicle: saline 96 % of control

CCOc1ccccc1NC(=O)NCC(=O)N/N=C/c1ccc(O)c(OC)c1
inactive: [2] 95 % of control | [19] 90 % of control | [20] 91 % of control

O=[N+]([O-])c1ccc(N=C(Cl)c2ccccc2)cc1
inactive: [16] 98 % of control | [17] 98 % of control | [18] 104 % of control

CCOC(=O)C1(CCC(C)=O)CCCCC1=O (stereo unspecified)
inactive: dose: 100.0 mg/kg/injection, schedule: Q04DX002 (ip), vehicle: Klucel (hydroxypropylcellulose) (HPC) 97 % of control | dose: 200.0 mg/kg/injection, schedule: Q04DX002 (ip), vehicle: Klucel (hydroxypropylcellulose) (HPC) 103 % of control | dose: 400.0 mg/kg/injection, schedule: Q04DX002 (ip), vehicle: Klucel (hydroxypropylcellulose) (HPC) 100 % of control

CCC(CC)OC(=O)c1cc([N+](=O)[O-])cc([N+](=O)[O-])c1
inactive: [16] 91 % of control | [17] 87 % of control | [18] 94 % of control

O=NN(c1ccccc1)c1ccccc1
inactive: [1] 98 % of control | [2] 100 % of control | [12] 101 % of control | [19] 102 % of control | dose: 400.0 mg/kg/injection, schedule: Q01DX001 (ip), vehicle: Klucel (hydroxypropylcellulose) (HPC) 87 % of control | [20] 92 % of control

CC(C)(C)C1CCC(=O)C(Cl)C1 (stereo unspecified)
inactive: [2] 94 % of control | dose: 100.0 mg/kg/injection, schedule: Q04DX003 (ip), vehicle: alcohol 94 % of control | [19] 95 % of control | dose: 200.0 mg/kg/injection, schedule: Q04DX003 (ip), vehicle: alcohol 92 % of control | dose: 400.0 mg/kg/injection, schedule: Q04DX003 (ip), vehicle: alcohol 87 % of control

Cc1ccc(N=C2N(c3ccccc3)N(c3ccccc3)C2(c2ccccc2)c2ccccc2)cc1
inactive: [21] 92 % of control | [22] 88 % of control | [23] 88 % of control

O=C(CCl)Nc1ccc([N+](=O)[O-])cc1
inactive: [24] 103 % of control | [25] 93 % of control | dose: 100.0 mg/kg/injection, schedule: Q04DX002 (ip), vehicle: saline with Tween-80 97 % of control

O=[N+]([O-])c1ccc(/C=N/O)s1
inactive: [24] 95 % of control | [25] 104 % of control

O=C(N/N=C/c1ccccc1O)c1cc2ccccc2cc1O
inactive: [4] 91 % of control | [5] 86 % of control | [7] 90 % of control

O=C=Nc1cccc(S(=O)(=O)F)c1
inactive: dose: 50.0 mg/kg/injection, schedule: Q01DX001 (ip), vehicle: carboxymethylcellulose (CMC) 105 % of control | [21] 103 % of control | [22] 105 % of control | [23] 97 % of control

CCCSCCSCCC
inactive: [26] 104 % of control | [27] 102 % of control | [16] 104 % of control and 90 % of control

CN=[N+]([O-])c1ccccc1
inactive: [13] 100 % of control | [14] 100 % of control | [15] 97 % of control

O=C(NCCCl)NC1C(O)CCCC1O (stereo unspecified)
inactive: [13] 103 % of control | [14] 97 % of control | [15] 103 % of control

CN(C)c1cc2c3ccccc3ccc2c2ccccc12
inactive: dose: 100.0 mg/kg/injection, schedule: Q01DX001 (ip), vehicle: olive oil, sesame oil, peanut oil 100 % of control | dose: 200.0 mg/kg/injection, schedule: Q01DX001 (ip), vehicle: olive oil, sesame oil, peanut oil 103 % of control | dose: 400.0 mg/kg/injection, schedule: Q01DX001 (ip), vehicle: olive oil, sesame oil, peanut oil 102 % of control

CN1CCCCC1CCN1c2ccccc2Sc2ccc(Br)cc21 (stereo unspecified)
inactive: dose: 3.12 mg/kg/injection, schedule: Q01DX009 (ip), vehicle: saline 105 % of control | dose: 6.25 mg/kg/injection, schedule: Q01DX009 (ip), vehicle: saline 100 % of control | [9] 101 % of control

C/C=C/CNc1ccc(C)cc1
inactive: dose: 25.0 mg/kg/injection, schedule: Q01DX009 (ip), vehicle: saline with Tween-80 102 % of control | [26] 97 % of control | [28] 97 % of control | [27] 90 % of control | [16] 101 % of control

COc1ccc(NC(=O)Nc2ccc(Cl)cc2)cc1
inactive: [2] 97 % of control | [3] 104 % of control | [19] 98 % of control | [6] 104 % of control | [20] 93 % of control | [8] 106 % of control

Cc1c2cnccc2c(C)c2c1c1ccccc1n2CCNCc1ccccc1
inactive: [27] 87 % of control | [16] 94 % of control | [17] 103 % of control

CCOC(=O)c1cc(Br)cc(Br)c1N=NN(C)C
inactive: [28] 105 % of control | [4] 113 % of control | [5] 105 % of control

C1O[C@@H]1[C@H]1CO1
inactive: dose: 9.5 mg/kg/injection, schedule: Q01DX001 (ip), vehicle: saline 100 % of control | dose: 19.0 mg/kg/injection, schedule: Q01DX001 (ip), vehicle: saline 97 % of control | dose: 38.0 mg/kg/injection, schedule: Q01DX001 (ip), vehicle: saline 101 % of control
